From PubChem BioAssay (NCI)
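Test compounds were applied to cells in 96-well plates for 48 hours at 5 doses. GI50 is the concentration that inhibits growth by half. The concentration for full growth arrest is given as TGI.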

What was measured:
Assay in all cases: NCI-60 cell line screen, 48 h
[1] = tested on: MDA-N
[2] = tested on: XF 498 CNS
[3] = tested on: SNB-78 CNS
[4] = tested on: HOP-18 NSCLC
[5] = tested on: DMS 273 small cell lung
[6] = tested on: KM20L2 colon
[7] = tested on: DMS 114 small cell lung
[8] = tested on: LXFL 529 NSCLC
[9] = tested on: RXF-631 renal

SMILES: C=CC(C)(C)n1cc(C2=C(O)C(=O)C(c3cn(C(C)(C)C=C)c4ccccc34)=C(O)C2=O)c2ccccc21
- TGI [1]: 4.98 µM

SMILES: CCOC(=O)C1Cc2ccc3c4c(ccc(c24)C1)CC(C(=O)OCC)C3
- TGI [2]: > 100 µM
- TGI [3]: > 100 µM
- TGI [4]: > 100 µM
- TGI [5]: > 100 µM
- TGI [6]: > 100 µM
- TGI [7]: > 100 µM

SMILES: CC1(C)COC2C(N(Cc3ccccc3)Cc3ccccc3)C(=O)N21 (stereo not drawn)
- TGI [3]: > 100 µM
- TGI [4]: > 100 µM
- TGI [6]: > 100 µM
- TGI [8]: > 100 µM

SMILES: C[N+](C)(C)CC1CCCCC1=O (stereo not drawn)
- TGI [4]: 30.4 µM
- TGI [5]: > 100 µM
- TGI [6]: 4.65 µM
- TGI [7]: > 100 µM

SMILES: CN(C)N1C(=O)SCC(c2ccccc2)(c2ccccc2)C1=O
- TGI [1]: > 100 µM

SMILES: CC(=O)c1cccc(NC(=O)C(=O)c2c(O)c3ccccc3oc2=O)c1
- TGI [1]: > 100 µM

SMILES: COC(=O)C(=O)C(CC(=O)Nc1ccc(C)cc1)C(=O)OC (stereo not drawn)
- TGI [2]: > 100 µM
- TGI [3]: > 100 µM
- TGI [9]: > 100 µM
- TGI [4]: > 100 µM
- TGI [6]: > 100 µM
- TGI [8]: > 100 µM
- TGI [7]: > 100 µM

SMILES: COc1ccc(O)c(C(=O)CCC(=O)O)c1
- TGI [2]: > 100 µM
- TGI [3]: > 100 µM
- TGI [9]: > 100 µM
- TGI [5]: > 100 µM
- TGI [8]: > 100 µM
- TGI [7]: > 100 µM

SMILES: O=[N+]([O-])c1cc([As](Br)c2ccc(O)c([N+](=O)[O-])c2)ccc1O
- TGI [1]: 3.4 µM

SMILES: CC1=Nc2ccccc2SC(c2c(Cl)cccc2Cl)C1 (stereo not drawn)
- TGI [2]: 3.21 µM
- TGI [3]: 23.8 µM
- TGI [4]: 11.1 µM
- TGI [5]: 2.19 µM
- TGI [6]: 2.98 µM
- TGI [8]: 1.69 µM
- TGI [7]: 3.19 µM

SMILES: CCCC(=O)N[C@H]1CCc2cc(OC)c(OC)c(OC)c2-c2ccc(SC)c(=O)cc21
- TGI [3]: > 100 µM
- TGI [9]: 1.42 µM
- TGI [4]: > 100 µM
- TGI [1]: < 0.01 µM
- TGI [5]: > 100 µM
- TGI [6]: < 0.01 µM
- TGI [8]: > 100 µM
- TGI [7]: < 0.01 µM

SMILES: Clc1ccccc1CN1COc2c(ccc3cccnc23)C1
- TGI [2]: 22.4 µM
- TGI [3]: 14 µM
- TGI [5]: 11.1 µM
- TGI [6]: 35.9 µM
- TGI [7]: 6.19 µM

SMILES: COC(=O)C(C(=O)C(=O)Nc1ccc(C)cc1C)c1csc(-n2nc(-c3ccccc3)cc2-c2ccccc2)n1 (stereo not drawn)
- TGI [2]: > 100 µM
- TGI [3]: > 100 µM
- TGI [9]: > 100 µM
- TGI [4]: > 100 µM
- TGI [5]: > 100 µM
- TGI [6]: > 100 µM
- TGI [8]: > 100 µM
- TGI [7]: > 100 µM

SMILES: CCCc1nc(Cl)nc(Cl)c1Cl
- TGI [1]: 0.398 µM

SMILES: CC1CC2(S(=O)(=O)c3ccccc3)ON1CC2S(=O)(=O)c1ccccc1 (stereo not drawn)
- TGI [2]: > 100 µM
- TGI [9]: > 100 µM
- TGI [5]: > 100 µM
- TGI [6]: > 100 µM
- TGI [8]: > 100 µM
- TGI [7]: > 100 µM

SMILES: O=c1c2c(-c3ccccc3)c3ccccc3nc2cnn1-c1ccccc1
- TGI [3]: > 100 µM
- TGI [4]: > 100 µM
- TGI [5]: > 100 µM
- TGI [6]: > 100 µM
- TGI [8]: > 100 µM
- TGI [7]: > 100 µM

SMILES: COc1ccc2c(c1)CN([C@@H](C)[C@H]1CC[C@H]3[C@@H]4CC[C@H]5C[C@@H](O)CC[C@]5(C)[C@H]4CC[C@]13C)CO2
- TGI [1]: 3.38 µM

SMILES: CCOc1cccc2c1N[S@@](=O)S2
- TGI [2]: > 100 µM
- TGI [3]: > 100 µM
- TGI [9]: > 100 µM
- TGI [5]: > 100 µM
- TGI [6]: > 100 µM
- TGI [8]: > 100 µM

SMILES: COc1cc2c(c3c1c(=O)c1ccccc1n3C)C=CC(C)(C)O2
- TGI [3]: > 100 µM
- TGI [4]: > 100 µM
- TGI [5]: > 100 µM
- TGI [6]: > 100 µM
- TGI [8]: > 100 µM
- TGI [7]: > 100 µM

SMILES: CC(=O)OC(C(=O)[O][Sn]([CH3])([CH3])[CH3])c1ccccc1 (stereo not drawn)
- GI50 [3]: > 100 µM
- TGI [3]: > 100 µM
- GI50 [9]: > 100 µM
- TGI [9]: > 100 µM
- GI50 [4]: > 100 µM
- TGI [4]: > 100 µM
- GI50 [6]: > 100 µM
- TGI [6]: > 100 µM
- GI50 [8]: 99.5 µM
- TGI [8]: > 100 µM
- GI50 [7]: > 100 µM
- TGI [7]: > 100 µM

SMILES: C#CCN(N=O)C(=O)ON1C(=O)CCC1=O
- TGI [3]: > 100 µM
- TGI [4]: > 100 µM
- TGI [5]: > 100 µM
- TGI [6]: > 100 µM
- TGI [8]: > 100 µM
- TGI [7]: > 100 µM

SMILES: O=C1CCC2(c3ccccc3)Nc3ccccc3N12 (stereo not drawn)
- TGI [2]: > 100 µM
- TGI [3]: > 100 µM
- TGI [9]: > 100 µM
- TGI [6]: > 100 µM
- TGI [8]: > 100 µM
- TGI [7]: > 100 µM

SMILES: O=C1/C(=C\c2ccco2)Oc2ccccc21
- TGI [1]: > 100 µM

SMILES: CSc1ncnc2c1ncn2CC(=O)C1CCC2C3CCC4=CC(=O)CCC4(C)C3CCC12C (stereo not drawn)
- TGI [1]: 12.4 µM

SMILES: CN/N=C(/c1nc2ccc([N+](=O)[O-])cc2[nH]c1=O)C(O)c1ccc(C(O)/C(=N\NC)c2nc3ccc([N+](=O)[O-])cc3[nH]c2=O)cc1 (stereo not drawn)
- TGI [3]: > 100 µM
- TGI [9]: > 100 µM
- TGI [5]: > 100 µM
- TGI [6]: > 100 µM
- TGI [8]: > 100 µM
- TGI [7]: > 100 µM

SMILES: CCOc1ccc(N=C(NC(=O)c2ccccc2)SC)cc1
- TGI [3]: > 100 µM
- TGI [4]: > 100 µM
- TGI [5]: > 100 µM
- TGI [6]: > 100 µM
- TGI [8]: > 100 µM
- TGI [7]: > 100 µM

SMILES: CO[C@H]1/C=C/O[C@@]2(C)Oc3c(C)c(O)c4c(O)c(c(/C=N/N5CCN(C)CC5)c(O)c4c3C2=O)NC(=O)/C(C)=C\C=C\[C@H](C)[C@H](O)[C@@H](C)[C@@H](O)[C@@H](C)[C@H](OC(C)=O)[C@@H]1C
- TGI [1]: > 100 µM

SMILES: N=c1c2ccccc2sc2nc3ccccc3n12
- TGI [2]: > 100 µM
- TGI [3]: > 100 µM
- TGI [4]: > 100 µM
- TGI [5]: > 100 µM
- TGI [8]: > 100 µM
- TGI [7]: > 100 µM

SMILES: COc1ccc(/C=C2\CCC(CCN(C)C)(C3=CCCC3)C2=O)cc1 (stereo not drawn)
- TGI [3]: 56.2 µM
- TGI [4]: 66.5 µM
- TGI [5]: 31.1 µM
- TGI [6]: 28.3 µM
- TGI [8]: 30.4 µM
- TGI [7]: 31.2 µM

SMILES: C=C1C(=O)OC2C1CCC(C)C1(O)C=CC(=O)C21C (stereo not drawn)
- TGI [1]: > 10 µM

SMILES: COC(=O)c1cc(=O)nc2cc3cccccc3n12
- TGI [2]: > 100 µM
- TGI [4]: > 100 µM
- TGI [6]: > 100 µM
- TGI [8]: > 100 µM

SMILES: C1=Cc2nc1c(-c1ccccc1)c1ccc([nH]1)c(-c1ccccc1)c1nc(c(-c3ccccc3)c3ccc([nH]3)c2-c2ccccc2)C=C1
- TGI [3]: > 100 µM
- TGI [9]: > 100 µM
- TGI [4]: > 100 µM
- TGI [5]: > 100 µM
- TGI [6]: > 100 µM
- TGI [8]: > 100 µM
- TGI [7]: > 100 µM

SMILES: CN(C)c1ccc(/C=C(\NC(=O)c2ccccc2)c2nc3ccc4c(c3[nH]2)C(=O)c2ccccc2C4=O)cc1
- TGI [3]: > 100 µM
- TGI [9]: > 100 µM
- TGI [5]: > 100 µM
- TGI [6]: > 100 µM
- TGI [8]: > 100 µM
- TGI [7]: > 100 µM

SMILES: CC(/C=C/C(O)=C1/C(=O)CNC1=O)=C\[C@@H](C)[C@H]1O[C@@]2(C)O[C@H](C(=O)[C@@H]3O[C@@]32C)[C@@H]1C
- TGI [1]: > 100 µM

SMILES: CCCCCCC(O)CC[C@H]1CCC[C@@H](C)N1 (stereo partly drawn)
- TGI [3]: > 100 µM
- TGI [4]: > 100 µM
- TGI [5]: > 100 µM
- TGI [6]: < 10 µM
- TGI [8]: > 100 µM
- TGI [7]: > 31.6 µM

SMILES: COC/N=C(\NC#N)NCOC
- TGI [2]: > 100 µM
- TGI [9]: > 100 µM
- TGI [4]: > 100 µM
- TGI [5]: > 81.5 µM
- TGI [6]: > 100 µM
- TGI [8]: > 100 µM
- TGI [7]: > 72.5 µM
